In PubChem BioAssay (NCI):
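These data come from cells grown in 96-well plates and exposed to compound for 48 hours at five concentrations. GI50 marks 50% less growth. The concentration for full growth arrest is given as TGI.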

Legend:
Assay in all cases: growth of human tumour cells (NCI), 48 h
NCI-H23 lung = tested on: NCI-H23 lung
NCI-H522 lung = tested on: NCI-H522 lung
NCI-H226 lung = tested on: NCI-H226 lung
MCF7 breast = tested on: MCF7 breast
BT-549 breast = tested on: BT-549 breast
IGROV1 ovarian = tested on: IGROV1 ovarian
SK-MEL-28 melanoma = tested on: SK-MEL-28 melanoma
A498 renal = tested on: A498 renal
SW-620 colon = tested on: SW-620 colon
DU-145 prostate = tested on: DU-145 prostate
NCI/ADR-RES ovarian = tested on: NCI/ADR-RES ovarian
MDA-MB-435 = tested on: MDA-MB-435
U251 CNS = tested on: U251 CNS
RPMI-8226 leukemia = tested on: RPMI-8226 leukemia
SN12C renal = tested on: SN12C renal
OVCAR-5 ovarian = tested on: OVCAR-5 ovarian
MDA-MB-231 breast = tested on: MDA-MB-231 breast
KM12 colon = tested on: KM12 colon
786-0 renal = tested on: 786-0 renal
HCC-2998 colon = tested on: HCC-2998 colon
EKVX NSCLC = tested on: EKVX NSCLC
TK-10 renal = tested on: TK-10 renal
T-47D breast = tested on: T-47D breast
A549 NSCLC = tested on: A549 NSCLC
LOX IMVI melanoma = tested on: LOX IMVI melanoma
CCRF-CEM leukemia = tested on: CCRF-CEM leukemia
SF-295 CNS = tested on: SF-295 CNS
SK-MEL-2 melanoma = tested on: SK-MEL-2 melanoma
MOLT-4 leukemia = tested on: MOLT-4 leukemia
OVCAR-8 ovarian = tested on: OVCAR-8 ovarian
OVCAR-4 ovarian = tested on: OVCAR-4 ovarian
HCT-116 colon = tested on: HCT-116 colon
COLO 205 colon = tested on: COLO 205 colon
UO-31 renal = tested on: UO-31 renal
HOP-92 NSCLC = tested on: HOP-92 NSCLC
NCI-H460 lung = tested on: NCI-H460 lung
M14 melanoma = tested on: M14 melanoma
SNB-19 CNS = tested on: SNB-19 CNS
SK-MEL-5 melanoma = tested on: SK-MEL-5 melanoma
SF-268 CNS = tested on: SF-268 CNS
SNB-75 CNS = tested on: SNB-75 CNS
HS 578T breast = tested on: HS 578T breast
HT29 colon = tested on: HT29 colon
RXF 393 renal = tested on: RXF 393 renal
MALME-3M melanoma = tested on: MALME-3M melanoma
PC-3 prostate = tested on: PC-3 prostate
OVCAR-3 ovarian = tested on: OVCAR-3 ovarian
SK-OV-3 ovarian = tested on: SK-OV-3 ovarian
UACC-257 melanoma = tested on: UACC-257 melanoma
K-562 leukemia = tested on: K-562 leukemia
ACHN renal = tested on: ACHN renal
HCT-15 colon = tested on: HCT-15 colon
SR leukemia = tested on: SR leukemia
UACC-62 melanoma = tested on: UACC-62 melanoma
HOP-62 NSCLC = tested on: HOP-62 NSCLC
SF-539 CNS = tested on: SF-539 CNS
HL-60(TB) leukemia = tested on: HL-60(TB) leukemia

COc1cc(NC(=O)c2cc(OC)c3ccn(C)c3c2)cc2c1C[C@]1(C)CC[C@@H](O)C(C)(C)[C@H]1O2
GI50 (NCI-H23 lung): 17.3 µM | TGI (NCI-H23 lung): > 100 µM | GI50 (NCI-H522 lung): 20.6 µM | TGI (NCI-H522 lung): > 100 µM | GI50 (NCI-H226 lung): 26.5 µM | TGI (NCI-H226 lung): > 100 µM | GI50 (MCF7 breast): 4.68 µM | TGI (MCF7 breast): 65.9 µM | GI50 (BT-549 breast): 2980 nM | TGI (BT-549 breast): > 100 µM | GI50 (IGROV1 ovarian): 21.2 µM | TGI (IGROV1 ovarian): > 100 µM | GI50 (SK-MEL-28 melanoma): 5.29 µM | TGI (SK-MEL-28 melanoma): > 100 µM | GI50 (A498 renal): 2850 nM | TGI (A498 renal): 7.15 µM | GI50 (SW-620 colon): 11.2 µM | TGI (SW-620 colon): > 100 µM | GI50 (DU-145 prostate): 9.08 µM | TGI (DU-145 prostate): > 100 µM | GI50 (NCI/ADR-RES ovarian): 29.3 µM | TGI (NCI/ADR-RES ovarian): > 100 µM | GI50 (MDA-MB-435): 9.08 µM | TGI (MDA-MB-435): 43.6 µM | GI50 (U251 CNS): 4.05 µM | TGI (U251 CNS): > 100 µM | GI50 (RPMI-8226 leukemia): 1350 nM | TGI (RPMI-8226 leukemia): 6.9 µM | GI50 (SN12C renal): 27.9 µM | TGI (SN12C renal): > 100 µM | GI50 (OVCAR-5 ovarian): 27.3 µM | TGI (OVCAR-5 ovarian): > 100 µM | GI50 (MDA-MB-231 breast): 7.73 µM | TGI (MDA-MB-231 breast): 41.8 µM | GI50 (KM12 colon): 9.92 µM | TGI (KM12 colon): > 100 µM | GI50 (786-0 renal): 1290 nM | TGI (786-0 renal): 4.08 µM | GI50 (HCC-2998 colon): 13.4 µM | TGI (HCC-2998 colon): > 100 µM | GI50 (EKVX NSCLC): 11.3 µM | TGI (EKVX NSCLC): > 100 µM | GI50 (TK-10 renal): 35.9 µM | TGI (TK-10 renal): > 100 µM | GI50 (T-47D breast): 10.3 µM | TGI (T-47D breast): > 100 µM | GI50 (A549 NSCLC): 10.3 µM | TGI (A549 NSCLC): > 100 µM | GI50 (LOX IMVI melanoma): 4.08 µM | TGI (LOX IMVI melanoma): 19 µM | GI50 (CCRF-CEM leukemia): 3.75 µM | TGI (CCRF-CEM leukemia): > 100 µM | GI50 (SF-295 CNS): 1010 nM | TGI (SF-295 CNS): 2950 nM | GI50 (SK-MEL-2 melanoma): 6.1 µM | TGI (SK-MEL-2 melanoma): 64.6 µM | GI50 (MOLT-4 leukemia): 2980 nM | TGI (MOLT-4 leukemia): 15 µM | GI50 (OVCAR-8 ovarian): 26 µM | TGI (OVCAR-8 ovarian): > 100 µM | GI50 (OVCAR-4 ovarian): 37.6 µM | TGI (OVCAR-4 ovarian): > 100 µM | GI50 (HCT-116 colon): 4.02 µM | TGI (HCT-116 colon): > 100 µM | GI50 (COLO 205 colon): 6.12 µM | TGI (COLO 205 colon): 51.5 µM | GI50 (UO-31 renal): 2460 nM | TGI (UO-31 renal): 5.78 µM | GI50 (HOP-92 NSCLC): 4.11 µM | TGI (HOP-92 NSCLC): 32.3 µM | GI50 (NCI-H460 lung): 5.24 µM | TGI (NCI-H460 lung): > 100 µM | GI50 (M14 melanoma): 2910 nM | TGI (M14 melanoma): 14 µM | GI50 (SNB-19 CNS): 25.3 µM | TGI (SNB-19 CNS): > 100 µM | GI50 (SK-MEL-5 melanoma): 2870 nM | TGI (SK-MEL-5 melanoma): 9.08 µM | GI50 (SF-268 CNS): 9.09 µM | TGI (SF-268 CNS): > 100 µM | GI50 (SNB-75 CNS): 1890 nM | TGI (SNB-75 CNS): 40.8 µM | GI50 (HS 578T breast): 2330 nM | TGI (HS 578T breast): 9.34 µM | GI50 (HT29 colon): 7.24 µM | TGI (HT29 colon): > 100 µM | GI50 (RXF 393 renal): 759 nM | TGI (RXF 393 renal): 4.28 µM | GI50 (MALME-3M melanoma): 6.22 µM | TGI (MALME-3M melanoma): 70.5 µM | GI50 (PC-3 prostate): 6.17 µM | TGI (PC-3 prostate): > 100 µM | GI50 (OVCAR-3 ovarian): 12.6 µM | TGI (OVCAR-3 ovarian): > 100 µM | GI50 (SK-OV-3 ovarian): 6.41 µM | TGI (SK-OV-3 ovarian): > 100 µM | GI50 (UACC-257 melanoma): 7.6 µM | TGI (UACC-257 melanoma): > 100 µM | GI50 (K-562 leukemia): 3.82 µM | TGI (K-562 leukemia): 39.3 µM | GI50 (ACHN renal): 5.31 µM | TGI (ACHN renal): > 100 µM | GI50 (HCT-15 colon): 5.13 µM | TGI (HCT-15 colon): > 100 µM | GI50 (SR leukemia): 2960 nM | TGI (SR leukemia): > 100 µM | GI50 (UACC-62 melanoma): 4.31 µM | TGI (UACC-62 melanoma): 49.6 µM | GI50 (HOP-62 NSCLC): 8.78 µM | TGI (HOP-62 NSCLC): > 100 µM | GI50 (SF-539 CNS): 1370 nM | TGI (SF-539 CNS): 18.8 µM | GI50 (HL-60(TB) leukemia): 3.49 µM | TGI (HL-60(TB) leukemia): 14.7 µM
